Columns and labels:
[1] = molecular target: T1, Alpha-1A adrenergic receptor (Rattus norvegicus) (UniProt P43140); assay: (§1) Antagonist activity against adrenergic alpha-1A receptor in rat prostatic vas deferens assessed as inhibition of noradrenaline-induced contraction; type: functional, tissue-based
T1 sequence (whole entry): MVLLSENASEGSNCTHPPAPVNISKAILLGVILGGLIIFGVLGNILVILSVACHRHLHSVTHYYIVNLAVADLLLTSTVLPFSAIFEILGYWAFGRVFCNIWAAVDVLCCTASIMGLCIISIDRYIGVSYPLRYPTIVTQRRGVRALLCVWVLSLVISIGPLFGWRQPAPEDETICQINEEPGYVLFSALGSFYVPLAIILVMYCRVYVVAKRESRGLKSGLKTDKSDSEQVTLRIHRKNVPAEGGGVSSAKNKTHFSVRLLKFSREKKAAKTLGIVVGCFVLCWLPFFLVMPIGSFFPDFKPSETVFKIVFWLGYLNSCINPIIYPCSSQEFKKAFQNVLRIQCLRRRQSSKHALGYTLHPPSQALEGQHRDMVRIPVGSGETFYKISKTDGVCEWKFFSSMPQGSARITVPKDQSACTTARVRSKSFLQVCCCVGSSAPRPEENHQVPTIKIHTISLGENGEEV

[2] = molecular target: T2, Alpha-1B adrenergic receptor (Rattus norvegicus) (UniProt P15823); assay: (§2) Antagonist activity against adrenergic Alpha-1B receptor in rat spleen assessed as inhibition of phenylephrine-induced response; type: functional, tissue-based
T2 sequence (whole entry): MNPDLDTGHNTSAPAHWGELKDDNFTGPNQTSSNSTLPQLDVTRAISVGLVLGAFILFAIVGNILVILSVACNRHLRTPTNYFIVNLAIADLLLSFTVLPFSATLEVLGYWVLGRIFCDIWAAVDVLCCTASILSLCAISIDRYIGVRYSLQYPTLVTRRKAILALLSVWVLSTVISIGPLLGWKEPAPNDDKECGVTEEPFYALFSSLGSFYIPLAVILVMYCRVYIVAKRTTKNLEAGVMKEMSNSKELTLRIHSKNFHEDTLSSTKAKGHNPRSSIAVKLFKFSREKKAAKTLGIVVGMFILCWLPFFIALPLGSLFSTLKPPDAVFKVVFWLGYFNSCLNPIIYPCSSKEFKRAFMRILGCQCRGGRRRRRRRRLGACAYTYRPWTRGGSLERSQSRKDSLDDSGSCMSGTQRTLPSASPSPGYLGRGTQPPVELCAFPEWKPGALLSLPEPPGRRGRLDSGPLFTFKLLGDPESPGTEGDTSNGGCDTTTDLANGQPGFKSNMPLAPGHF

[3] = molecular target: T3, Alpha-1D adrenergic receptor (Rattus norvegicus, UniProt P23944); assay: (§3) Antagonist activity against adrenergic Alpha-1D receptor in rat thoracic aorta assessed as noradrenaline-induced response; type: functional, tissue-based; settings: read-out: pA2 (converted)
T3 sequence (P23944 whole entry): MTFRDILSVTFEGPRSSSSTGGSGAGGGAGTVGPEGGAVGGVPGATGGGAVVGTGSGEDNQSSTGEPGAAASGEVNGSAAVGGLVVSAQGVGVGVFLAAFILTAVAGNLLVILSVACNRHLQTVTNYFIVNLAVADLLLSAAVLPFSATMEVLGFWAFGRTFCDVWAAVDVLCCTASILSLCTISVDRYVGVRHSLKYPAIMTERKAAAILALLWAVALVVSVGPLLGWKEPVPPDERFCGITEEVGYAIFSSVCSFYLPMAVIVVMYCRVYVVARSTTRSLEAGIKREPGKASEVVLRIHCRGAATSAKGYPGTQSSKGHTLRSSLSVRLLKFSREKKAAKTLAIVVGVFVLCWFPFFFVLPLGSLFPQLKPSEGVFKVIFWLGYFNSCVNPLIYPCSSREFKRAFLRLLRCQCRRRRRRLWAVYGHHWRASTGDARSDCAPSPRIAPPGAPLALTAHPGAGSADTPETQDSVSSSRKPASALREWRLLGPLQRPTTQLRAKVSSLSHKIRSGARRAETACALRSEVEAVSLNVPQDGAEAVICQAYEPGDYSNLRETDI

[4] = molecular target: Alpha adrenergic receptor 1A and 1B (Rattus norvegicus) (UniProt P15823+P43140); assay: Selectivity ratio for rat adrenergic alpha-1A receptor over rat adrenergic Alpha-1B receptor; type: functional
Rattus norvegicus = species: Rattus norvegicus; assay: Selectivity ratio for rat adrenergic Alpha-1D receptor over rat adrenergic Alpha-1B receptor; type: functional
[5] = molecular target: Alpha adrenergic receptor 1A and 1D (Rattus norvegicus) (UniProt P23944+P43140); assay: Selectivity ratio for rat adrenergic alpha-1A receptor over rat adrenergic Alpha-1D receptor; type: functional
[6] = molecular target: T4, Alpha-1A adrenergic receptor (Homo sapiens, UniProt P35348); assay: Displacement of [3H]prazosin from human adrenergic alpha-1a receptor expressed in CHO cells; type: cell-based
T4 sequence (P35348 whole entry): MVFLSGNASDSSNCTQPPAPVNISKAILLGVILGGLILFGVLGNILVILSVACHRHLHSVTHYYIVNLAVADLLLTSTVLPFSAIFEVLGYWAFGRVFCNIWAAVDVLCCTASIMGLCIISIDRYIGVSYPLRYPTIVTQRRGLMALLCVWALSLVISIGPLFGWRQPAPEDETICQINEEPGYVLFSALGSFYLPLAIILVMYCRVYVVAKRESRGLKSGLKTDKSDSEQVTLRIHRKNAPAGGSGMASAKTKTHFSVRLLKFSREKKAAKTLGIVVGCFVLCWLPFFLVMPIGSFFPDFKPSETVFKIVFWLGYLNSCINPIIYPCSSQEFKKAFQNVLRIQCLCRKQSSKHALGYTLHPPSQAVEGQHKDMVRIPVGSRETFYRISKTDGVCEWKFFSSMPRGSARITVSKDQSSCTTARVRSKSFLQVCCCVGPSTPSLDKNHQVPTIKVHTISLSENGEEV

[7] = molecular target: T5, Alpha-1B adrenergic receptor (Homo sapiens, UniProt P35368); assay: Displacement of [3H]prazosin from human adrenergic alpha-1b receptor expressed in CHO cells; type: cell-based
T5 sequence (P35368 whole entry): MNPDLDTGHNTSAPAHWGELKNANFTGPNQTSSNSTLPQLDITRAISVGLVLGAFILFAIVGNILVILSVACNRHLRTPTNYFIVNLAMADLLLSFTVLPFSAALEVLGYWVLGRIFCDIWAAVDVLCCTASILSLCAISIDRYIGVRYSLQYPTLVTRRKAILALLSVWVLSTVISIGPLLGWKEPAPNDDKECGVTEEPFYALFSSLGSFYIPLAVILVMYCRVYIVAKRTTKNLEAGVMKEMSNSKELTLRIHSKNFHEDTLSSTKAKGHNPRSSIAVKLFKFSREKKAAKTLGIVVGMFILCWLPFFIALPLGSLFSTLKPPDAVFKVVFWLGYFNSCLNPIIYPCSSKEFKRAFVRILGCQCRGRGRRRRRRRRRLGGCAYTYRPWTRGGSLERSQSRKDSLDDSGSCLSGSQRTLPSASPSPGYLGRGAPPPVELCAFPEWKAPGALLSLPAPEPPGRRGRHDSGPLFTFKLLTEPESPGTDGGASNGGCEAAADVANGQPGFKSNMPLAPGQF

[8] = molecular target: T6, Alpha-1D adrenergic receptor (Homo sapiens, UniProt P25100); assay: Displacement of [3H]prazosin from human adrenergic alpha-1d receptor expressed in CHO cells; type: cell-based
T6 sequence (P25100 whole entry): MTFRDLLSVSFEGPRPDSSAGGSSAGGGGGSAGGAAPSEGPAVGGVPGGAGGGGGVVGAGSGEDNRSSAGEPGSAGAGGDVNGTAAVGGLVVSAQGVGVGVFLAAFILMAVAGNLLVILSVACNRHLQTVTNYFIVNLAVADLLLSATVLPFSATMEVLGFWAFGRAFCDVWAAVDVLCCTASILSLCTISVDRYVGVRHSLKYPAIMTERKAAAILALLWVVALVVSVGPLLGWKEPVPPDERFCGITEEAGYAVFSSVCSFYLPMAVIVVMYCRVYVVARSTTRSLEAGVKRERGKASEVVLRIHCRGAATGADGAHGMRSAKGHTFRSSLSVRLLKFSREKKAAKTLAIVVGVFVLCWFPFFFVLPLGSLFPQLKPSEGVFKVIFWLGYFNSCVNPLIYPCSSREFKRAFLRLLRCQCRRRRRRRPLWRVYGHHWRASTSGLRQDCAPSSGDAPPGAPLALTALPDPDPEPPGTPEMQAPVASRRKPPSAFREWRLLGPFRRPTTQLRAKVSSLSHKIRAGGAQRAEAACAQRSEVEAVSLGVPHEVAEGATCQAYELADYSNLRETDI

[9] = molecular target: Adrenergic receptors; alpha-1 A & B (Homo sapiens) (UniProt P35348+P35368); assay: Selectivity ratio of pKi for human adrenergic alpha-1a receptor to pKi for human adrenergic alpha-1b receptor; type: protein assay
Homo sapiens = species: Homo sapiens; assay: Selectivity ratio of pKi for human adrenergic alpha-1d receptor to pKi for human adrenergic alpha-1b receptor
[10] = molecular target: Alpha adrenergic receptor (1a and 1d) (Homo sapiens) (UniProt P35348+P25100); assay: Selectivity ratio of pKi for human adrenergic alpha-1a receptor to pKi for human adrenergic alpha1d receptor; type: protein assay
[11] = molecular target: T7, Alpha-1A adrenergic receptor (Rattus norvegicus, UniProt P43140); assay: as §1; type: functional, tissue-based; settings: read-out: pA2 (converted)
T7 sequence (P43140 whole entry): T1 sequence (whole entry)

[12] = molecular target: T8, Alpha-1D adrenergic receptor (Rattus norvegicus) (UniProt P23944); assay: as §3; type: functional, tissue-based
T8 sequence (whole entry): T3 sequence (P23944 whole entry)

[13] = molecular target: T9, Alpha-1B adrenergic receptor (Rattus norvegicus, UniProt P15823); assay: as §2; type: functional, tissue-based; settings: read-out: pA2 (converted)
T9 sequence (P15823 whole entry): T2 sequence (whole entry)

Compound	pKb [1]	pKb [2]	Kb [3] [nM]	Selectivity ratio [4]	Selectivity ratio (Rattus norvegicus)	Selectivity ratio [5]	Ki [6] [nM]	Ki [7] [nM]	Ki [8] [nM]	Selectivity ratio [9]	Selectivity ratio (Homo sapiens)	Selectivity ratio [10]	Kb [11] [nM]	pKb [12]	Kb [13] [nM]
COc1cc2nc(N3CCN(C(=O)c4ccc(Br)o4)[C@H]4CCCC[C@H]43)nc(N)c2cc1OC	7.53	8.5	58.9	9	19	0.5	3.47	0.309	1.55	11	5	2			
COc1ccc(C(=O)N2CCN(c3nc(N)c4cc(OC)c(OC)cc4n3)[C@@H]3CCCC[C@@H]32)o1		8.5	89.1	45	28	2	27.5	0.871	3.63	32	4	8	141		
COc1cc2nc(N3CCN(C(=O)c4ccccc4)[C@H]4CCCC[C@H]43)nc(N)c2cc1OC		8.83		21	12	2	4.17	0.49	3.24	8.5	7	1	30.9	7.76	
COc1cc2nc(N3CCN(C(=O)c4ccc(C(C)=O)o4)[C@H]4CCCC[C@H]43)nc(N)c2cc1OC	7.05	8.13	214	12	29	0.4	25.7	1.38	7.41	19	5	4			
COc1cc2nc(N3CCN(C(=O)c4ccccn4)[C@H]4CCCC[C@H]43)nc(N)c2cc1OC	7.04	8.64		40	33	1	49	5.89	26.9	8	5	2		7.12	
COc1cc2nc(N3CCN(C(=O)c4cccs4)[C@H]4CCCC[C@H]43)nc(N)c2cc1OC	7.44	8.78	35.5	22	21	1	4.27	0.24	2.34	18	10	2			
COc1cc2nc(N3CCN(C(=O)c4ccc(C)o4)[C@H]4CCCC[C@H]43)nc(N)c2cc1OC			91.2	148	41	4	23.4	0.871	4.79	27	6	5	331		2.24
COc1cc2nc(N3CCN(C(=O)c4ccco4)[C@H]4CCCC[C@H]43)nc(N)c2cc1OC [CYCLAZOSIN]		8.86					12.3	0.135	3.24				17		
COc1cc2nc(N3CCN(C(=O)c4ccc[nH]4)[C@H]4CCCC[C@H]43)nc(N)c2cc1OC	7.06	8.05		10	5	2	10.5	3.16	1.51	3	0.5	7		7.33	

From ChEMBL document CHEMBL1147165, “Synthesis and alpha(1)-adrenoceptor antagonist activity of derivatives and isosters of the furan portion of (+)-cyclazosin” (Bioorg Med Chem, 2007)
